Experimental data reported in US6841089B2, “Detoxification of onium compounds” (Baker Hughes Incorporated, priority 2001, dated 2005).

Tests used:
Format in all cases: physicochemical
[1] = Quat removal from brine: additive, then heptane extraction, water layer analyzed for quat (Examples 1-4); details: brine of 97.50 g water and 2.50 μg sodium chloride dosed with 1.52 g methanolic quat solution; 90 ml sample; 1.00 g DDBSA or 0.90 g oleic acid; shaken 1 minute with 10 ml heptane; centrifuged
Experimental: A brine solution comprising 97.50 g of water and […] of sodium chloride was dosed with 1.52 g of a methanolic solution of a quat (solution contains 33% methanol and 67% RE 4136 quaternary ammonium compound available from Baker Petrolite). A 90 ml sample of the water, sodium chloride, quat solution was shaken by hand for 1 minute with 10 ml of heptane. The mixture is centrifuged to separate the layers and the water layer was analyzed for quat. The above test was repeated but in this case the sample was dosed with 1.00 g of dodecylbenzenesulfonic acid (DDBSA) or 0.90 g of oleic acid (as indicated) before the addition of heptane and shaken by hand. These two cases required prolonged centrifugation to separate the phases. Again, the water phase was analyzed for quat. The quat concentration is expressed in ppm of methanolic quat solution.

[2] = Quat removal from brine: additive without heptane, oil layer separated, water layer washed with heptane (Examples 5-6); details: same brine/quat solution, 90 ml; 0.45 g p-TSA or 0.74 g naphthenic acids; shaken 1 minute without heptane; water layer washed with 10 ml heptane
Experimental: In a second set of tests, a 90 ml sample of the above water, sodium chloride and quat solution was dosed with 0.45 g of para-toluenesulfonic acid (p-TSA) or 0.74 g of a mixture of naphthenic acids (as indicated). In this test, the mixture was shaken 1 minute by hand in the absence of heptane. The samples were centrifuged. An oil layer separated and remained at the top of the samples. The slightly hazy water layer was removed. The water layer was washed with 10 ml of heptane and again centrifuged. The clear water layer was analyzed for quat.

[3] = Quat removal from 16% sodium chloride brine suspension (Examples 7-8); details: brine of 84 g water and 16 g sodium chloride with 1.52 g quat solution, used as suspension; 90 ml; 0.45 g p-TSA or 0.74 g naphthenic acids
Experimental: In a third set of tests, a brine solution comprising 84 g of water and 16 g of sodium chloride was dosed with 1.52 g of the above quat solution. In this case, the quat separates to some extent from the brine on standing and was used immediately in the next step as a suspension. A 90 ml sample of this suspension was dosed with 0.45 g of p-TSA or 0.74 g of a mixture of naphthenic acids (as indicated). The samples were treated as above and analyzed for quat.

| Compound | ppm of methanolic quat solution in water [1] | ppm of methanolic quat solution in water [2] | ppm of methanolic quat solution in water [3] |
| --- | --- | --- | --- |
| CCCCCCCCCCCCc1ccc(S(=O)(=O)O)cc1 [DDBSA, dodecylbenzenesulfonic acid] | 76 ppm | – | – |
| CCCCCCC [Heptane only, heptane] | 15,000 ppm | – | – |
| CCCCCCCC/C=C\CCCCCCCC(=O)O [Oleic acid, oleic acid] | 121 ppm | – | – |
| Cc1ccc(S(=O)(=O)O)cc1 [p-TSA, para-toluenesulfonic acid] | – | 178 ppm | 88 ppm |
